PMC6089501 (Journal of Medicinal Chemistry, 2018)
Values after ≈ are worked out from the molar mass of the structure shown. Values joined by “and” are separate entries in the source; they are usually repeats but may differ in a detail not shown here. Equal entries are not always repeated. Where two headings read alike, the source gives them in different places.

Experiments:
M. tuberculosis H37Rv [1] = assay: microbe, parasite or virus in culture; assay type: cell-based, Mycobacterium tuberculosis; conditions: for MIC90 / IC90 / MIC: Mycobacterium tuberculosis, H37RV; for MIC90: read-out: MIC (MIC90); for IC90: read-out: TB-IC90_OD GEOM_MEAN
[2] = for CL mouse MEAN / in vitro mouse Clint: microsomes
Vero cells [3] = assay: cells; conditions: Chlorocebus sabaeus, read-out: VERO IC50
Protocol: (§1) Compounds were solubilized in DMSO and assayed as a 10-point 3-fold serial dilution. Compounds were incubated with cells for 2 days at 37 °C, 5% CO2. CellTiter-Glo Reagent (Promega) was added and relative luminescent units (RLU) measured.

physchem [4] = conditions: aqueous with cosolvent or surfactant or cyclodextrin, kinetic from dmso stock
physchem [5] = assay: physchem
Vero cells [6] = conditions: read-out: VERO IC50
Protocol: as §1

[7] = female, C57 Black, mouse, in vivo, iv, 3 mg/kg
Protocol: (§2) Test compound was dosed as a bolus solution intravenously at 3 mg of free base/kilogram (dose volume 5 mL/kg; dose vehicle Saline or 10% DMSO; 40% PEG400; 50% saline) to female C57 Black (n = 3) or dosed orally by gavage as a solution at 10 mg of free base/kilogram (dose volume 10 mL/kg; dose vehicle 10% DMSO; 40% PEG400; 50% distilled water) to female C57 Black (n = 3/dose level). Blood samples were taken from each mouse tail vein at predetermined time points postdose, mixed with two volumes of distilled water, and stored frozen until UPLC/MS/MS analysis. Pharmacokinetic parameters were derived from the blood concentration time curve using PK Solutions software v 2.0 (Summit Research Services, USA).

[8] = system: Madin Darby Canine Kidney (MDCK); conditions: for P-glycoprotein (P-gp) efflux (in words) / permeability (in words): MDCK-MDR1; for P-gp Efflux B→ A/A → B: dog, MDCK
in vivo = conditions: female, C57 Black, mouse; for bioavailability: po, 10 mg/kg
Protocol: as §2

in vitro = conditions: dog, MDCK-MDR1
physchem [9] = assay: physchem; remark: listed apart in the source
Protocol: Samples are stirred for 20 h and filtered through a 0.7 μm GF filter. The filtrate was analyzed by HPLC assay for concentration against DMSO standard curve.[40]

physchem [10] = assay: physchem; remark: listed apart in the source
M. tuberculosis H37Rv [11] = system: M. tuberculosis H37Rv; parameters: species or system Mycobacterium tuberculosis; conditions: in vivo

## NC(=O)c1sc(-n2cnc3ccccc32)cc1OCCc1ccccc1 [Compound 33, 5-(Benzimidazol-1-yl)-3-(2-phenylethoxy)thiophene-2-carboxamide]
M. tuberculosis H37Rv [1]
  antitubercular whole cell activity (in words): inactive
  MIC90: > 20 µM
  IC90: > 20 µM
[2]; female, CD1, mouse, pH 7.4
  Cli mouse: 28 mL.min^–1.g^–1
[2]; mouse
  CL mouse MEAN: 28.23 mL/min/g
Vero cells [3]
  IC50: > 100 µM
Physchem [4]
  solubility kinetic: 27.5 µM (≈ 9.99 µg/mL)
Physchem [5]
  chromatographic logD: 2.39

## NC(=O)c1sc(-n2nccn2)cc1OCCc1ccccc1 [Compound 34, 3-(2-Phenylethoxy)-5-(triazol-2-yl)thiophene-2-carboxamide]
M. tuberculosis H37Rv [1]
  MIC90: 2 µM (≈ 0.629 µg/mL)
  IC90: 2.05 µM
[2]; female, CD1, mouse, pH 7.4
  Cli mouse: 30 mL.min^–1.g^–1
[2]; mouse
  CL mouse MEAN: 30.46 mL/min/g
Vero cells [3]
  IC50: > 100 µM
Physchem [4]
  solubility kinetic: 78.5 µM (≈ 24.7 µg/mL)
Physchem [5]
  chromatographic logD: 2.41

## NC(=O)c1sc(-c2ccncc2)cc1OCCc1ccccc1 [Compound 35, 3-(2-Phenylethoxy)-5-(4-pyridyl)thiophene-2-carboxamide]
M. tuberculosis H37Rv [1]
  MIC90: 5.3 µM (≈ 1.72 µg/mL)
  IC90: 5.08 µM
M. tuberculosis H37Rv [1]; read-out: MIC WT
  MIC: 5.8 µM
Vero cells [6]
  IC50: 5.62 µM
[2]; female, CD1, mouse, pH 7.4
  Cli mouse: 41 mL.min^–1.g^–1
[2]; mouse
  CL mouse MEAN: 40.84 mL/min/g
Vero cells [3]
  IC50: 5.9 µM
Physchem [4]
  solubility kinetic: 219 µM (≈ 71 µg/mL)
Physchem [5]
  chromatographic logD: 1.9

## NC(=O)c1sc(N2CCOCC2)cc1OCCc1ccccc1F [Compound 38]
M. tuberculosis H37Rv [1]
  MIC90: 3.4 µM (≈ 1.19 µg/mL)
  IC90: 3.7 µM
Vero cells [6]
  IC50: 83.2 µM
[2]; female, CD1, mouse, pH 7.4
  CL mouse MEAN: 25.22 mL/min/g
  Cli mouse: 25 mL.min^–1.g^–1
Vero cells [3]
  IC50: 84 µM
Physchem [5]
  chromatographic logD: 2.05

## NC(=O)c1sc(N2CCOCC2)cc1OCCc1cccc(F)c1 [Compound 39, 3-[2-(3-Fluorophenyl)ethoxy]-5-morpholinothiophene-2-carboxamide]
M. tuberculosis H37Rv [1]
  MIC90: 0.43 µM (≈ 0.151 µg/mL)
  IC90: 0.469 µM
M. tuberculosis H37Rv [1]; read-out: MIC WT
  MIC: 0.53 µM
[2]; female, CD1, mouse, pH 7.4
  Cli mouse: 18 mL.min^–1.g^–1
[2]; mouse
  CL mouse MEAN: 17.63 mL/min/g
Vero cells [3]
  IC50: > 100 µM
Physchem [4]
  solubility kinetic: 219 µM (≈ 76.7 µg/mL)
Physchem [5]
  chromatographic logD: 2.05

## CC1(COc2cc(N3CCOCC3)sc2C(N)=O)COC1 [Compound 46, 3-((3-Methyloxetan-3-yl)methoxy)-5-morpholinothiophene-2-carboxamide]
M. tuberculosis H37Rv [1]
  antitubercular whole cell activity (in words): no measurable MIC activity
  MIC90: > 20 µM
M. tuberculosis H37Rv [1]; read-out: H37Rv MIC
  MIC: > 6.2 µg/mL
[2]; female, CD1, mouse, pH 7.4
  Cli mouse: 2.1 mL.min^–1.g^–1
  scaled Clpre: 56 mL/min/kg
[2]; mouse
  CL mouse MEAN: 2.051 mL/min/g
  in vitro mouse Clint: 2.1 mL/min/g
[7]
  CLB: 31 mL/min/kg
  T1/2: 42 min
[8]
  P-glycoprotein (P-gp) efflux (in words): no likely P-glycoprotein (P-gp) efflux issues
  permeability (in words): good permeability
  P-gp Efflux B→ A/A → B: 2
Vero cells [3]
  IC50: > 100 µM
In vivo
  bioavailability: 38%
Physchem [5]
  chromatographic logD: 0.707
In vitro
  Papp A→B: 19 ×10⁻⁶ cm/s
  Papp B→A: 35 ×10⁻⁶ cm/s

## NC(=O)c1cc(N2CCOCC2)ccc1OCCc1ccccc1 [Compound 55, 5-Morpholino-2-(2-phenylethoxy)benzamide]
M. tuberculosis H37Rv [1]; read-out: H37Rv MIC
  MIC: 1.9 µg/mL
M. tuberculosis H37Rv [1]
  MIC90: 5.7 µM (≈ 1.86 µg/mL)
[2]; female, CD1, mouse, pH 7.4
  Cli mouse: 3.8 mL.min^–1.g^–1
  scaled Clpre: 68 mL/min/kg
[2]; mouse
  CL mouse MEAN: 3.79 mL/min/g
  in vitro mouse Clint: 4 mL/min/g
[7]
  CLB: 32 mL/min/kg
  T1/2: 72 min
Vero cells [3]
  IC50: > 100 µM
In vivo; iv, 3 mg/kg
  AUC: 1590 ng·h/mL
In vivo
  bioavailability: 5%
Physchem [5]
  chromatographic logD: 1.9
Physchem [9]; pH 2
  solubility: 600 µg/mL (≈ 1840 µM)
Physchem [9]; pH 6
  solubility: 300 µg/mL (≈ 919 µM)
Physchem [9]; pH 7.4
  solubility: 300 µg/mL (≈ 919 µM)
Physchem [10]; pH 2.4
  solubility: 1300 µg/mL (≈ 3980 µM)
Physchem [10]; pH 6
  solubility: 300 µg/mL (≈ 919 µM)

## NC(=O)c1cc(N2CCOCC2)ccc1OCCc1cccc(F)c1 [Compound 56, 2-[2-(3-Fluorophenyl)ethoxy]-5-morpholino-benzamide]
M. tuberculosis H37Rv [1]
  MIC90: 2.8 µM (≈ 0.964 µg/mL)
[2]; female, CD1, mouse, pH 7.4
  Cli mouse: 6.4 mL.min^–1.g^–1
[2]; mouse
  CL mouse MEAN: 6.406 mL/min/g
[8]
  P-glycoprotein (P-gp) efflux (in words): no likely P-glycoprotein (P-gp) efflux issues
  permeability (in words): good permeability
  P-gp Efflux B→ A/A → B: 0.7
Vero cells [3]
  IC50: > 100 µM
In vitro
  Papp A→B: 51 ×10⁻⁶ cm/s
  Papp B→A: 37 ×10⁻⁶ cm/s

## COCCc1ccc(OCC(O)CNC(C)C)cc1 (stereo not shown) [Metoprolol, reference compound]
In vitro
  Papp A→B: 55 ×10⁻⁶ cm/s
  Papp B→A: 40 ×10⁻⁶ cm/s

## COc1c(N2C[C@@H]3CCCN[C@@H]3C2)c(F)cc2c(=O)c(C(=O)O)cn(C3CC3)c12 [Moxifloxacin]
M. tuberculosis H37Rv [11]
  log CFUs per mouse (lungs), individual mice: 3.8 log CFU (2×) and 4.4 log CFU and 4.0 log CFU and 3.9 log CFU
  log CFUs per mouse (lungs), mean: 4.0 log CFU
  reduction of CFU lung number with respect to untreated mice: 2.8 logs

## C=C[C@H]1C[N@@]2CC[C@H]1C[C@@H]2[C@@H](O)c1ccnc2ccc(OC)cc12 [Quinidine, reference compound]
In vitro
  Papp B→A: 89 ×10⁻⁶ cm/s
